Measured values reported in PMC9322314 (2022).

Assays:
[1] = test system: FdxT (DNA, hairpin, hexaethyleneglycol (HEG) loop between 9 and 10) TATAGCTATATAGCTATA; assay: FRET melting; conditions: 10 mM K+, 90 mM Li+; 10 mM Li cacodylate pH 7.2, 0.2 μM DNA, 2 μM compound
[2] = test system: 22AG (DNA, G4) AGGGTTAGGGTTAGGGTTAGGG; assay: CD titration, Hill fit; conditions: 10 mM Li cacodylate pH 7.2, 3 μM DNA
[3] = test system: Pu24T (32P-labelled) (DNA, G4) TGAGGGTGGTGAGGGTGGGGAAGG; assay: photoalkylation (365 nm), denaturing PAGE; conditions: 100 mM K+; covalent; 10 mM Li cacodylate pH 7.2, 10 μM DNA, 20 μM compound
[4] = test system: 22AG (32P-labelled) (DNA, G4) AGGGTTAGGGTTAGGGTTAGGG; assay: photoalkylation (365 nm), denaturing PAGE; conditions: 100 mM K+; covalent; 10 mM Li cacodylate pH 7.2, 10 μM DNA, 20 μM compound
[5] = test system: F(c-Kit2)T (DNA, G4) GGGCGGGCGCGAGGGAGGGG; assay: FRET melting; conditions: 1 mM K+, 99 mM Li+; 10 mM Li cacodylate pH 7.2, 0.2 μM DNA, 2 μM compound
[6] = test system: F21T (DNA, G4) GGGTTAGGGTTAGGGTTAGGG; assay: FRET melting; conditions: 10 mM K+, 90 mM Li+; 10 mM Li cacodylate pH 7.2, 0.2 μM DNA, 20 μM compound
[7] = test system: F(c-Myc)T (DNA, G4) TTGAGGGTGGGTAGGGTGGGTAA; assay: FRET melting; conditions: 1 mM K+, 99 mM Li+; 10 mM Li cacodylate pH 7.2, 0.2 μM DNA, 2 μM compound
[8] = test system: F(CEB25wt)T (DNA, G4) AAGGGTGGGTGTAAGTGTGGGTGGGT; assay: FRET melting; conditions: 1 mM K+, 99 mM Li+; 10 mM Li cacodylate pH 7.2, 0.2 μM DNA, 2 μM compound
[9] = test system: F(Pu24T)T (DNA, G4) TGAGGGTGGTGAGGGTGGGGAAGG; assay: FRET melting; conditions: 1 mM K+, 99 mM Li+; 10 mM Li cacodylate pH 7.2, 0.2 μM DNA, 20 μM compound
[10] = test system: F(21CTA)T (DNA, G4) GGGCTAGGGCTAGGGCTAGGG; assay: FRET melting; conditions: 10 mM K+, 90 mM Li+; 10 mM Li cacodylate pH 7.2, 0.2 μM DNA, 2 μM compound

Row | SMILES | binding [1] | binding ([2]; 100 mM K+) | binding [3] | binding ([2]; 100 mM Na+) | binding [4] | binding [5] | ΔT 1/2 [6] [°C] | binding [7] | binding [8] | ΔT 1/2 [9] [°C] | binding [10]
1 | C[N+](C)(C)Cc1cc(C#Cc2cccc(C#Cc3ccc(O)c(C[N+](C)(C)C)c3)c2)ccc1O | no | yes | yes | yes | yes | – | – | – | – | – | –
2 | CN(C)Cc1cc(C#Cc2cccc(C#Cc3ccc(O)c(CN(C)C)c3)c2)ccc1O | no | yes | yes | yes | yes | – | – | – | – | – | –
3 | CN(C)Cc1ccc(C#Cc2cccc(C#Cc3ccc(CN(C)C)c(O)c3)c2)cc1O | no | yes | – | yes | – | – | – | – | – | – | –
4 | C[N+](C)(C)Cc1ccc(C#Cc2cccc(C#Cc3ccc(C[N+](C)(C)C)c(O)c3)c2)cc1O | no | yes | yes | yes | yes | – | – | – | – | – | –

Results, then the compound that gave them:

Row | binding [1] | binding ([2]; 100 mM K+) | binding [3] | binding ([2]; 100 mM Na+) | binding [4] | binding [5] | ΔT 1/2 [6] [°C] | binding [7] | binding [8] | ΔT 1/2 [9] [°C] | binding [10] | SMILES
5 | no | yes | – | – | – | – | – | – | – | – | – | CN(C)Cc1cc2cc(C#Cc3cccc(C#Cc4ccc5cc(O)c(CN(C)C)cc5c4)c3)ccc2cc1O
6 | no | yes | – | yes | – | weak | 33.3 | yes | weak | 29.0 | weak | C[N+](C)(C)Cc1cc2cc(C#Cc3cccc(C#Cc4ccc5cc(O)c(C[N+](C)(C)C)cc5c4)c3)ccc2cc1O
